2 compounds from patent US6525021B1 (priority 1998, dated 2003) can be followed below.

For series [1] the following is noted: mouse, in vivo.
For series [2] the following is noted: mouse, in vivo. The source holds these as a separate data set.

Molecules are shown by their SMILES. Non-standard residues stand in square brackets, D forms with d. Residues, ends and D or L forms follow the SMILES beside them. *: point of attachment. X1 = CC(=O)N[C@@H]1[C@@H](O[C@@H]2O[C@H](CO)[C@H](O)[C@H](O)[C@H]2O)[C@@H](O)[C@@H](CO)O[C@@H]1*; pGlu = O=C1CC[C@@H](C(=O)O)N1

Regarding `CC[C@H](C)[C@H](NC(=O)[C@H](Cc1ccc(O)cc1)NC(=O)[C@@H]1CCCN1C(=O)[C@H](CCCCN)NC(=O)[C@H](CCCCN)NC(=O)[C@@H](NC(=O)[C@H](C)NC(=O)[C@H](CC(N)=O)NC(=O)[C@H](CO)NC(=O)CNC(=O)CNC(=O)[C@H](CCC(=O)O)NC(=O)[C@H](CCC(=O)O)NC(=O)[C@H](CO)NC(=O)[C@@H]1CCC(=O)N1)[C@@H](C)O)C(=O)N[C@@H](CC(C)C)C(=O)O` [Thr10-contulakin-G] (HELM PEPTIDE1{[Glp].S.E.E.G.G.S.N.A.T.K.K.P.Y.I.L}$$$$V2.0), the “motor impairment on rotorod compared to vehicle” value in series [1] is on record as “no motor impairment”. In addition, in series [2], the “antinociceptive doses relative to doses for locomotor impairment or hypothermia” value is reported as “approximately equal doses”; the “doses causing long-lasting motor impairment, as multiple of ED50” value was at least 10 fold; the “duration of motor impairment” value fell in the range of 2 to 3 h; the “time of maximal locomotor impairment post i.t. injection” value is 15 min.
Take `CC[C@H](C)[C@H](NC(=O)[C@H](Cc1ccc(O)cc1)NC(=O)[C@@H]1CCCN1C(=O)[C@H](CCCCN)NC(=O)[C@H](CCCCN)NC(=O)[C@@H](NC(=O)[C@H](C)NC(=O)[C@H](CC(N)=O)NC(=O)[C@H](CO)NC(=O)CNC(=O)CNC(=O)[C@H](CCC(=O)O)NC(=O)[C@H](CCC(=O)O)NC(=O)[C@H](CO)NC(=O)[C@@H]1CCC(=O)N1)[C@@H](C)O[C@H]1O[C@H](CO)[C@H](O)[C@H](O[C@@H]2O[C@H](CO)[C@H](O)[C@H](O)[C@H]2O)[C@H]1NC(C)=O)C(=O)N[C@@H](CC(C)C)C(=O)O` [contulakin-G] ([pGlu]SEEGGSNAT(X1)KKPYIL-OH): in series [2], the “TD50, rotorod test of minimal motor impairment” value lay in the range of 10 to 20 pmol; the “antinociceptive doses relative to doses for locomotor impairment or hypothermia” value is 10-100 fold; the “doses causing long-lasting motor impairment, as multiple of ED50” value was at least 100 fold; the “time after which motor impairment resolved” value worked out at 5 h. Besides, the “time of maximal locomotor impairment post i.t. injection” value in series [2] was 15 min.
